From article PMC11274128, “Modification and Synergistic Studies of a Novel Frog Antimicrobial Peptide against Pseudomonas aeruginosa Biofilms” (Antibiotics, 2024)
Values after ≈ are worked out from the molar mass of the structure shown. Read-outs that look alike come from different tables or passages of the source. Bridge positions count the residues as written; N and C are the ends. Peptide text beside a SMILES is read from it.

What was measured:
E. faecalis (NCTC 12697) = assay: microbe, parasite or virus in culture; format: cell-based, Enterococcus faecalis; details: planktonic E. faecalis NCTC 12697; for MIC: 37 °C, nine repeats of three independent experiments; for MBC: lowest concentration killing 99.9% of inoculum
Description: (§1) The minimum inhibitory concentration (MIC) is the minimum concentration of an antimicrobial agent that prevents the visible growth of a bacterium or bacteria. The MIC is an important piece of data for research on new antimicrobial agents and helps in the effective selection of antibiotics to improve the success of treatment. The minimum bactericidal concentration (MBC) is defined as the lowest antibiotic concentration that kills 99.9% of the inoculum. This study mainly contained eight different microorganisms, which were Staphylococcus aureus (ATCC 6538), methicillin-resistant Staphylococcus aureus (NCTC 12493), Enterococcus faecalis (NCTC 12697), Escherichia coli (ATCC 8739), Klebsiella pneumoniae (ATCC 43816), Pseudomonas aeruginosa (ATCC CRM 9027), Acinetobacter baumannii (BAA 747), and Candida albicans (ATCC 10231). The bacteria were incubated in the compatible medium at 37 °C overnight.

E. coli (ATCC 8739) = assay: microbe, parasite or virus in culture; format: cell-based, Escherichia coli; details: planktonic E. coli ATCC 8739; for MIC: 37 °C, nine repeats of three independent experiments, read-out: MIC; for MBC: lowest concentration killing 99.9% of inoculum, read-out: MBC
Description: as §1

[1] = test system: K. pneumoniae (ATCC 43816); assay: microbe, parasite or virus in culture; format: cell-based, Klebsiella pneumoniae; details: planktonic K. pneumoniae ATCC 43816; for MIC: 37 °C, nine repeats of three independent experiments; for MBC: lowest concentration killing 99.9% of inoculum
Description: as §1

[2] = test system: P. aeruginosa (ATCC CRM 9027); assay: microbe, parasite or virus in culture; format: cell-based, Pseudomonas aeruginosa; details: planktonic P. aeruginosa ATCC CRM 9027; for MIC: 37 °C, nine repeats of three independent experiments; for MBC: lowest concentration killing 99.9% of inoculum
Description: as §1

C. albicans (ATCC 10231) = format: cell-based, Candida albicans; details: yeast C. albicans ATCC 10231; for MIC: 37 °C, nine repeats of three independent experiments; for MBC: lowest concentration killing 99.9% of inoculum
Description: as §1

G− Bacteria = assay: Geometric mean of MICs and TI value; format: cell-based; details: geometric mean of MICs against tested Gram-negative bacteria
Method: (§2) The therapeutic potential of antimicrobial agents was valued based on their selectivity toward bacteria in reference to erythrocytes. The TI value was calculated from the results of antibacterial and haemolysis experiments of peptides using the following formula:TI value = HC10 / GMMICs.
(§3) GM was the geometric mean of MICs against all tested bacteria.

Yeast = assay: Geometric mean of MICs and TI value; format: cell-based, Candida albicans; details: C. albicans ATCC 10231
Method: as §2, §3

[3] = test system: S. aureus ATCC 6538 biofilm; format: cell-based, Staphylococcus aureus; details: for MBIC: lowest concentration inhibiting at least 90% of biofilm formation; for MBEC: minimum concentration eradicating at least 99% of the biofilm
Description: (§4) The minimum bactericidal concentration (MBC) is defined as the lowest antibiotic concentration that kills 99.9% of the inoculum. The minimum biofilm inhibitory concentration (MBIC) is the lowest concentration that inhibits at least 90% of the formation of biofilm. The minimum biofilm eradication concentration (MBEC) is the minimum concentration that can eradicate at least 99% of the biofilm. In addition to the eight microorganisms described previously, this experiment was also applied to P. aeruginosa (ATCC 27853, ATCC BAA-2108, P. aeruginosa 01, P. aeruginosa 14).

MRSA NCTC 12493 biofilm [4] = format: cell-based, methicillin-resistant Staphylococcus aureus; details: for MBIC: lowest concentration inhibiting at least 90% of biofilm formation; for MBEC: minimum concentration eradicating at least 99% of the biofilm
Description: as §4

[5] = test system: E. faecalis NCTC 12697 biofilm; format: cell-based, Enterococcus faecalis; details: for MBIC: lowest concentration inhibiting at least 90% of biofilm formation; for MBEC: minimum concentration eradicating at least 99% of the biofilm
Description: as §4

[6] = test system: K. pneumoniae ATCC 43816 biofilm; format: cell-based, Klebsiella pneumoniae; details: for MBIC: lowest concentration inhibiting at least 90% of biofilm formation; for MBEC: minimum concentration eradicating at least 99% of the biofilm
Description: as §4

[7] = test system: E. faecalis NCTC 12697 biofilm; assay: Peptide and antibiotic co-administration MBIC checkerboard assay; format: cell-based, Enterococcus faecalis; details: 24 h, crystal violet, 595 nm
Description: The plate was then carefully cleaned under running water.

[8] = test system: K. pneumoniae ATCC 43816 biofilm; details: checkerboard MBIC, 24 h, crystal violet, 595 nm
Method: (§5) Parameter fractional inhibitory concentration indices (FICIs) were used to evaluate the synergistic effect, and the value of that was calculated as follows:FICI = FICa + FICb FICa = MIC combination peptide/MIC single peptide FICb = MIC combination antibiotic/MIC single antibiotic
(§6) The FICI value was interpreted as “synergy” (FICI ≤ 0.5), “no interaction” (0.5 < FICI ≤ 4), or “antagonism” (FICI > 4).
(§7) The bacteria were also cultured, subcultured, diluted, and incubated as the methods of the MBIC assay. All experimental groups were included in a peptide and antibiotic co-administration of MIC assay. To ensure that the mixture was evenly dispersed, the plate was placed in a shaker and incubated for 24 h at 37 and 220× g. The plate was twice rinsed with 200 µL of PBS solution following a 24 h incubation period with peptides and diluted bacterial cultures. Each well received a separate addition of 100 μL of methanol and 0.1% crystal violet solution (Sigma-Aldrich, London, UK), which was left there for 20 min. The plate was then carefully cleaned under running water. Following the drying process, each well received 160 µL of acetic acid (33% in dd water, Sigma-Aldrich, UK). Additionally, the absorbance was measured at λ = 595 nm using the Synergy HT plate reader. FICI values were calculated and identified for our peptide and antibiotic co-administration of MIC assay.

MRSA NCTC 12493 biofilm [9] = details: checkerboard MBIC, 24 h, crystal violet, 595 nm
Method: as §5, §6, §7

P. aeruginosa 01 biofilm = details: checkerboard MBIC, 24 h, crystal violet, 595 nm
Method: as §5, §6, §7

P. aeruginosa 14 biofilm = details: checkerboard MBIC, 24 h, crystal violet, 595 nm
Method: as §5, §6, §7

[10] = test system: P. aeruginosa ATCC 27853 biofilm; details: checkerboard MBIC, 24 h, crystal violet, 595 nm
Method: as §5, §6, §7

[11] = test system: P. aeruginosa ATCC BAA-2108 biofilm; details: checkerboard MBIC, 24 h, crystal violet, 595 nm
Method: as §5, §6, §7

[12] = test system: S. aureus ATCC 6538 biofilm; details: checkerboard MBIC, 24 h, crystal violet, 595 nm
Method: as §5, §6, §7

[13] = peptide combined with gentamicin

| SMILES | MIC (E. faecalis (NCTC 12697)) [µM] | MBC (E. faecalis (NCTC 12697)) [µM] | MIC (E. coli (ATCC 8739)) [µM] | MBC (E. coli (ATCC 8739)) [µM] | MIC [1] [µM] | MBC [1] [µM] | MIC (C. albicans (ATCC 10231)) [µM] | MBC (C. albicans (ATCC 10231)) [µM] | GM (geometric mean of MICs), G− Bacteria (G− Bacteria) [µM] | GM (geometric mean of MICs), Yeast (Yeast) [µM] | MBIC [3] | MBEC [3] | MBIC (MRSA NCTC 12493 biofilm [4]) | MBEC (MRSA NCTC 12493 biofilm [4]) | MBIC [5] | MBEC [5] | MBIC [6] | MBEC [6] | Biofilm FICI ([7]; peptide combined with cefepime) | Biofilm FICI ([8]; peptide combined with cefepime) | also measured |
| --- | --- | --- | --- | --- | --- | --- | --- | --- | --- | --- | --- | --- | --- | --- | --- | --- | --- | --- | --- | --- | --- |
| CC[C@H](C)[C@H](NC(=O)[C@H](CCCCN)NC(=O)[C@H](CCCCN)NC(=O)CNC(=O)[C@H](C)NC(=O)CNC(=O)[C@H](CC(C)C)NC(=O)[C@@H](NC(=O)CNC(=O)[C@H](CO)NC(=O)[C@H](CC(C)C)NC(=O)[C@H](CC(C)C)NC(=O)CN)C(C)C)C(=O)N[C@H](C(=O)N[C@H]1CSSC[C@@H](C(=O)O)NC(=O)[C@H](CCCNC(=N)N)NC(=O)CNC(=O)[C@H](CO)NC(=O)[C@H](CC(C)C)NC(=O)CNC1=O)C(C)C [Nigrosin-6VL] (H-GLLSGVLGAGKKIVCGLSGRC-OH; disulfide 15-21) | > 128 | > 128 | 64 (≈ 127 µg/mL) | 128 (≈ 254 µg/mL) | 128 (≈ 254 µg/mL) | 128 (≈ 254 µg/mL) | 128 (≈ 254 µg/mL) | > 128 | 90.51 | 128.00 | 128/>128 µM | 128/>128 µM | >128/>128 µM | >128/>128 µM | >128/>128 µM | >128/>128 µM | >128/>128 µM | >128/>128 µM | 0.5 | 1.25 | MIC ([2]; read-out: MIC): 32 µM (≈ 63.6 µg/mL); MBC ([2]; read-out: MBC): 128 µM (≈ 254 µg/mL); Biofilm FICI [7, 13]: 0.5; Biofilm FICI [8, 13]: 0.5; Biofilm FICI (MRSA NCTC 12493 biofilm [9]; peptide combined with cefepime): 0.75; Biofilm FICI (MRSA NCTC 12493 biofilm [9]; [13]): 0.375; Biofilm FICI (P. aeruginosa 01 biofilm; peptide combined with cefepime): 0.625; Biofilm FICI (P. aeruginosa 01 biofilm; [13]): 0.625; Biofilm FICI (P. aeruginosa 14 biofilm; peptide combined with cefepime): 0.25; Biofilm FICI (P. aeruginosa 14 biofilm; [13]): 0.5; Biofilm FICI ([10]; peptide combined with cefepime): 1; Biofilm FICI [10, 13]: 0.25; Biofilm FICI ([11]; peptide combined with cefepime): 0.625; Biofilm FICI [11, 13]: 1; Biofilm FICI ([12]; peptide combined with cefepime): 1; Biofilm FICI [12, 13]: 0.5 |
| CC[C@H](C)[C@H](NC(=O)[C@H](CCCCN)NC(=O)[C@H](CCCCN)NC(=O)CNC(=O)[C@H](C)NC(=O)[C@H](CCCNC(=N)N)NC(=O)[C@H](CC(C)C)NC(=O)[C@@H](NC(=O)[C@H](C)NC(=O)[C@H](CCCNC(=N)N)NC(=O)[C@H](CC(C)C)NC(=O)[C@H](CC(C)C)NC(=O)CN)C(C)C)C(=O)N[C@H](C(=O)N[C@H]1CSSC[C@@H](C(=O)O)NC(=O)[C@H](CCCNC(=N)N)NC(=O)CNC(=O)[C@H](CO)NC(=O)[C@H](CC(C)C)NC(=O)CNC1=O)C(C)C [Peptide 2170-2R] (H-GLLRAVLRAGKKIVCGLSGRC-OH; disulfide 15-21) | 128 (≈ 278 µg/mL) | 128 (≈ 278 µg/mL) | 4 (≈ 8.67 µg/mL) | 8 (≈ 17.3 µg/mL) | 32 (≈ 69.4 µg/mL) | 32 (≈ 69.4 µg/mL) | 64 (≈ 139 µg/mL) | 128 (≈ 278 µg/mL) | 11.31 | 64.00 | 4 µM | 16 µM | 4 µM | 16 µM | 32 µM | > 128 µM | 32 µM | > 128 µM | 0.375 | 3 | MIC [2]: 32 µM (≈ 69.4 µg/mL); MBC [2]: 32 µM (≈ 69.4 µg/mL); Biofilm FICI [8, 13]: 1.125; Biofilm FICI (MRSA NCTC 12493 biofilm [9]; peptide combined with cefepime): 0.5; Biofilm FICI (MRSA NCTC 12493 biofilm [9]; [13]): 1.125; Biofilm FICI (P. aeruginosa 01 biofilm; peptide combined with cefepime): 0.5; Biofilm FICI (P. aeruginosa 01 biofilm; [13]): 1; Biofilm FICI (P. aeruginosa 14 biofilm; peptide combined with cefepime): 0.375; Biofilm FICI (P. aeruginosa 14 biofilm; [13]): 1; Biofilm FICI ([10]; peptide combined with cefepime): 0.5; Biofilm FICI [10, 13]: 0.25; Biofilm FICI ([11]; peptide combined with cefepime): 1; Biofilm FICI [11, 13]: >3; Biofilm FICI ([12]; peptide combined with cefepime): 1; Biofilm FICI [12, 13]: 0.25 |
